Among the targets are Cannabinoid receptor 1 (Homo sapiens, UniProt P21554); Histamine H1 receptor (Homo sapiens, UniProt P35367); Melanocortin receptor 4 (Homo sapiens, UniProt P32245); Motilin receptor (Homo sapiens, UniProt O43193); Mu-type opioid receptor (Homo sapiens, UniProt P35372); Histamine H3 receptor (Homo sapiens, UniProt Q9Y5N1).
Another test deals with Bile salt export pump (Homo sapiens, UniProt O95342). Type of test: functional.
The target in test [1] is T1, Alpha-2A adrenergic receptor (Homo sapiens, UniProt P08913).
T1 sequence (P08913 whole entry): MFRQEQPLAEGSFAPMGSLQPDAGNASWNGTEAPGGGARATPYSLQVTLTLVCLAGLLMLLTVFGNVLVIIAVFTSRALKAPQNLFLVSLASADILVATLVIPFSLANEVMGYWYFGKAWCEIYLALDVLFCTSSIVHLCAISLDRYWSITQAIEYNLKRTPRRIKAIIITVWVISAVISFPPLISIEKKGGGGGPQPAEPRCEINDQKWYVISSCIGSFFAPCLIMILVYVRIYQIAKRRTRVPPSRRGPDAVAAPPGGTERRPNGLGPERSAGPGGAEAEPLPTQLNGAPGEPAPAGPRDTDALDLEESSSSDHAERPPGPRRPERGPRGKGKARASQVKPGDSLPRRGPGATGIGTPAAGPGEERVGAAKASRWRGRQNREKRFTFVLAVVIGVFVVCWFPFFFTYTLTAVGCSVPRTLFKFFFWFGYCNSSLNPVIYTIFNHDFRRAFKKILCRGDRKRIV
Type of test: functional, cell-based.

In test [2] the target is T1, Alpha-2A adrenergic receptor. The test is classed as functional, cell-based. This is another data set of the same source.
For test [3], the target named is Beta-1 adrenergic receptor (Homo sapiens, UniProt P08588). The test is classed as functional.
Beta-1 adrenergic receptor, sequence (P08588 whole entry): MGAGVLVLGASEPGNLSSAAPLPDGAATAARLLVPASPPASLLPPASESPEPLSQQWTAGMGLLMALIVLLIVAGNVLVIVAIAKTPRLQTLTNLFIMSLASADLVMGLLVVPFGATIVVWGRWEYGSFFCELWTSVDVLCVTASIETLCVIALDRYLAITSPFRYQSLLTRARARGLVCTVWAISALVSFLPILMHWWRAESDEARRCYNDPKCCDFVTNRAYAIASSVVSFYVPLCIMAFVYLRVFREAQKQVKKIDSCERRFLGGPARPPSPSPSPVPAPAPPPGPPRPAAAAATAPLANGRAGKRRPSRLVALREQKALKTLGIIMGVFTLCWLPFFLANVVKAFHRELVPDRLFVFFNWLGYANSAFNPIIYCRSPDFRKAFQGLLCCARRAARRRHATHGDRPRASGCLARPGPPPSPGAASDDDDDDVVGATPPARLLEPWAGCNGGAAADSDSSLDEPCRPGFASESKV
The target of test [4] is T2, Type-1 angiotensin II receptor (Homo sapiens, UniProt P30556).
T2 sequence (P30556 whole entry): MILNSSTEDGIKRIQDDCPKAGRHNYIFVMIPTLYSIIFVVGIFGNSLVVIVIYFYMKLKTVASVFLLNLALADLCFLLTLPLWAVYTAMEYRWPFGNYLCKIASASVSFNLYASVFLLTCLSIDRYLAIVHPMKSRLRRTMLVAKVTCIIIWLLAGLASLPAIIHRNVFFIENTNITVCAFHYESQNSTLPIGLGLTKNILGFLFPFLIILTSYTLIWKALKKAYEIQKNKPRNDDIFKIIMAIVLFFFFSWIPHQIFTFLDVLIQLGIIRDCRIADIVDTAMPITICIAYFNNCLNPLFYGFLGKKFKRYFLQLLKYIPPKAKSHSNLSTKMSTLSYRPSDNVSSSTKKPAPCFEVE

For test [5], the target named is Neuronal acetylcholine receptor subunit alpha-4 (Homo sapiens, UniProt P43681).
For test [6], the target named is Glutamate receptor ionotropic, NMDA 1 (Rattus norvegicus, UniProt P35439).
Test [7] deals with 5-hydroxytryptamine receptor 2B (Homo sapiens, UniProt P41595). The test is classed as functional, cell-based.
5-hydroxytryptamine receptor 2B, sequence (P41595 whole entry): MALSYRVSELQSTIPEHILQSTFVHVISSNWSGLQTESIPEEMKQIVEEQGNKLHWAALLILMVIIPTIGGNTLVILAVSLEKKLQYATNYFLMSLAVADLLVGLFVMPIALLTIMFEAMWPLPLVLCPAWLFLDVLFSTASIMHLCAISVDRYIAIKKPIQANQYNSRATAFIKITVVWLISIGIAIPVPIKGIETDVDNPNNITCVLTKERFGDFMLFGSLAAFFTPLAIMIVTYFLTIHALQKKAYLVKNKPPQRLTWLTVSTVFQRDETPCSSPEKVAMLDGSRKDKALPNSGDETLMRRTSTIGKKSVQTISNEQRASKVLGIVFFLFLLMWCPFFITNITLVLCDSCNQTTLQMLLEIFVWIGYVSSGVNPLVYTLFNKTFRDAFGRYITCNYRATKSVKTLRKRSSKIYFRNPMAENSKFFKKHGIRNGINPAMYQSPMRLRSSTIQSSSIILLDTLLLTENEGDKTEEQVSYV
Test [8] addresses T3, Neuropeptide Y receptor type 1 (Homo sapiens, UniProt P25929).
T3 sequence (P25929 whole entry): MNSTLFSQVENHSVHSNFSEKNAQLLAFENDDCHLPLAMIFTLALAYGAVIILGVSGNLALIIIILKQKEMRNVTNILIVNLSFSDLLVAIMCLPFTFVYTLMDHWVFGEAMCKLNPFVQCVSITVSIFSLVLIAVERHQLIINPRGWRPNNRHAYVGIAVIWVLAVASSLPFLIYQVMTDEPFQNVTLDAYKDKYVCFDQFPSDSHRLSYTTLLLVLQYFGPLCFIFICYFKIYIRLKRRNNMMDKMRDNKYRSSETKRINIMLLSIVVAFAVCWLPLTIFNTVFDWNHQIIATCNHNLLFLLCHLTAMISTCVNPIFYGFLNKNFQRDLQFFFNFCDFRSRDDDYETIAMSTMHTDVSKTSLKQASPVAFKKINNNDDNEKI

The target of test [9] is Kappa-type opioid receptor (Homo sapiens, UniProt P41145).
Kappa-type opioid receptor, sequence (P41145 whole entry): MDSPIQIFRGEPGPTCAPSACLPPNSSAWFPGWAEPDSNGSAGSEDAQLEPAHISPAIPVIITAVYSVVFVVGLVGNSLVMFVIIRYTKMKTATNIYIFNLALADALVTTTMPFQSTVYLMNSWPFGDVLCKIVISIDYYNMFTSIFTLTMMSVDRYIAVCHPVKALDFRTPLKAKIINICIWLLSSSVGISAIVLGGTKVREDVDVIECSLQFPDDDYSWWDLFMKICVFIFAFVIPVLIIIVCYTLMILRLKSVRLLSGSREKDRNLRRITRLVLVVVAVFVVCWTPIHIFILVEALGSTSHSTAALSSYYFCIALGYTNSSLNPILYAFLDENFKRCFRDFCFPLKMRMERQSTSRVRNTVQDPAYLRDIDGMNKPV
For test [10], the target named is Sodium-dependent serotonin transporter (Homo sapiens, UniProt P31645).
Sodium-dependent serotonin transporter, sequence (P31645 whole entry): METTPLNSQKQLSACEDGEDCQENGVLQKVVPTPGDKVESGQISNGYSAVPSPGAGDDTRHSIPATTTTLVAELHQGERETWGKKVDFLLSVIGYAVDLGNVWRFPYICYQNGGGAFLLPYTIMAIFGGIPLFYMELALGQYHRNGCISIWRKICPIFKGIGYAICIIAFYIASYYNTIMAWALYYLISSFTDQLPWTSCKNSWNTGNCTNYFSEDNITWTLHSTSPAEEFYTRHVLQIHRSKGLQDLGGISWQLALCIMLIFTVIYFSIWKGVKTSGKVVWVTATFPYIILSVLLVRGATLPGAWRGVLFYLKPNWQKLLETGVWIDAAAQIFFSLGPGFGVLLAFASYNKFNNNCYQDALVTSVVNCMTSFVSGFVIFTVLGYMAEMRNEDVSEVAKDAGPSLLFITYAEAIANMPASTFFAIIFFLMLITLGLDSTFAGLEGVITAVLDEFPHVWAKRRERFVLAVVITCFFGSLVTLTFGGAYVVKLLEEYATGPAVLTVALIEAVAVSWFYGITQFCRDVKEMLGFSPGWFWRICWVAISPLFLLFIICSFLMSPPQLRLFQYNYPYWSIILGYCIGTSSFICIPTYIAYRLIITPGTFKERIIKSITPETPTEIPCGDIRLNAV

What is called AC50 is the concentration at which the activity in the assay is half-maximal.
Also: assay procedure not described here.

Melanocortin receptor 4, sequence (P32245 whole entry): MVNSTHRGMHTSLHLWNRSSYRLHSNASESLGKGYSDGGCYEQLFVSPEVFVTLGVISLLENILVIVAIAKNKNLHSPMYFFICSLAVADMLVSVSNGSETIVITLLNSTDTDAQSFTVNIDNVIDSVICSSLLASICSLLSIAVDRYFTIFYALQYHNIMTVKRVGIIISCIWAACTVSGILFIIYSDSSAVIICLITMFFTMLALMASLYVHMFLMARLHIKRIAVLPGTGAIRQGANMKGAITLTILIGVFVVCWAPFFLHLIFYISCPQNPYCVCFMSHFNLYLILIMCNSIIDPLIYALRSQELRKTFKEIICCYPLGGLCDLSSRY
Histamine H3 receptor, sequence (Q9Y5N1 whole entry): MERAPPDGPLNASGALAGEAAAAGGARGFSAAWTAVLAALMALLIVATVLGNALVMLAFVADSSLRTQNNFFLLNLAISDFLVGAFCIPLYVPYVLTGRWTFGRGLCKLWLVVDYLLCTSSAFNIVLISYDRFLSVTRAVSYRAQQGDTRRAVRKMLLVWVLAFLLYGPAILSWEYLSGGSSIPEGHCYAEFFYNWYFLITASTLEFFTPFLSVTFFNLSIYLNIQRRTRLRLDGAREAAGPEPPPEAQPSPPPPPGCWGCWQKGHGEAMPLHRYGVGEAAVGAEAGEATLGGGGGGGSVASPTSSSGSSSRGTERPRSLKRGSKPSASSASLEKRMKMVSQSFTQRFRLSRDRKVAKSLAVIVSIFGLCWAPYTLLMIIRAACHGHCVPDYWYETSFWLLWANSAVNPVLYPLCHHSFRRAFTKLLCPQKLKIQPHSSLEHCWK
Cannabinoid receptor 1, sequence (P21554 whole entry): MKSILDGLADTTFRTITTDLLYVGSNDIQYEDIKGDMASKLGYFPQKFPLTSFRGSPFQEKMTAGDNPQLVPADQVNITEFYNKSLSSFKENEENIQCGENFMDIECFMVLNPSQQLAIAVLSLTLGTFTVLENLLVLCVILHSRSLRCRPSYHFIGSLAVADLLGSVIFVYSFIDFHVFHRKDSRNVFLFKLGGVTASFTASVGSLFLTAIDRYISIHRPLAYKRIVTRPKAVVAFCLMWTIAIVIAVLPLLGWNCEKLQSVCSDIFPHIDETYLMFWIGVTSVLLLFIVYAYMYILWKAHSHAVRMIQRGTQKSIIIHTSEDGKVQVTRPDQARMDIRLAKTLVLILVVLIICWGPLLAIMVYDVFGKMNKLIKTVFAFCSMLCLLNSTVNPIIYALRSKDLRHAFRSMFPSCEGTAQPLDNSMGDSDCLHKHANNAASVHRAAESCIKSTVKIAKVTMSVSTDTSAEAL
Bile salt export pump, sequence (O95342 whole entry): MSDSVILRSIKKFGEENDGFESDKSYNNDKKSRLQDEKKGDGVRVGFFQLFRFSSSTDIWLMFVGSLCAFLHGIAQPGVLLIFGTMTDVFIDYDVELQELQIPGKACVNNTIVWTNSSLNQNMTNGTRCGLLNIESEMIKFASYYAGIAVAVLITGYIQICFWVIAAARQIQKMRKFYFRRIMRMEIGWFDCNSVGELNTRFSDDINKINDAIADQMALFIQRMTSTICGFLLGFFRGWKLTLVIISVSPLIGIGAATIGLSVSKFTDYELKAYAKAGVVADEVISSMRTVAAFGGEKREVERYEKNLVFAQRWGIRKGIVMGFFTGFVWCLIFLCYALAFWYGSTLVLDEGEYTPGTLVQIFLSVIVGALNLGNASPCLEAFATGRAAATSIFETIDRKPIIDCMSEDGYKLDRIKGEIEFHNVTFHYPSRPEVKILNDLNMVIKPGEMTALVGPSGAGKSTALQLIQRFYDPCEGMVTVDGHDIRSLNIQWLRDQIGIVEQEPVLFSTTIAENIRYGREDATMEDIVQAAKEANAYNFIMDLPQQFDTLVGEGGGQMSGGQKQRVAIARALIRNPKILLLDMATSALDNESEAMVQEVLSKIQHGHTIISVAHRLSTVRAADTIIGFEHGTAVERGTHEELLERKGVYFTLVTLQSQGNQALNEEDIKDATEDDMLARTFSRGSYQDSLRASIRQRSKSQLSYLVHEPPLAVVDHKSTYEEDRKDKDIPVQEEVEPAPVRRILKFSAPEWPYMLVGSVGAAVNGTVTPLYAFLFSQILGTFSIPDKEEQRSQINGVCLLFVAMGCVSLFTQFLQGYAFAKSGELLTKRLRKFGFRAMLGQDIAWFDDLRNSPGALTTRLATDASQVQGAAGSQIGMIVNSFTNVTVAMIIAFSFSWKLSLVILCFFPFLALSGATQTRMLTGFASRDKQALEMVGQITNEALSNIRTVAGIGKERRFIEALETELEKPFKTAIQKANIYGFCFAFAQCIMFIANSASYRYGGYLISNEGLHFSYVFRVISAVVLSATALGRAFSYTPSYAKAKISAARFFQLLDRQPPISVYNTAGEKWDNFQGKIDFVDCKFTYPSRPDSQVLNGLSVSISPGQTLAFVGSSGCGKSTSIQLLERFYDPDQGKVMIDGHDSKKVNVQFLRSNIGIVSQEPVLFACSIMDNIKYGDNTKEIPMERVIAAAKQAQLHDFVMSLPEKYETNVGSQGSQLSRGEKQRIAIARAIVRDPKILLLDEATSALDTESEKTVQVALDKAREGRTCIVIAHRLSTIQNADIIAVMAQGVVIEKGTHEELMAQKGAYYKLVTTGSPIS
Mu-type opioid receptor, sequence (P35372 whole entry): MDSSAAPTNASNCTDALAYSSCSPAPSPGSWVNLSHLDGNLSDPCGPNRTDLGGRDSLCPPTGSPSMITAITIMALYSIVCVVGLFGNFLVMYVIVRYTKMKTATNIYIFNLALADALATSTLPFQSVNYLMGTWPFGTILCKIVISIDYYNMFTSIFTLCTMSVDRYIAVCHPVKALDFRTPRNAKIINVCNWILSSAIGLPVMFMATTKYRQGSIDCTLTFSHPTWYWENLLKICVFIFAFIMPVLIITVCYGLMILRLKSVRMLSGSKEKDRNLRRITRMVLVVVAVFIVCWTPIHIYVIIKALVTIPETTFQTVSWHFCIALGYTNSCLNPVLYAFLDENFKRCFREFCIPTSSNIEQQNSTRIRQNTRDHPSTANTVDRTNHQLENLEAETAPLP

Take `C[C@]12CCC(=O)C=C1CC[C@H]1[C@@H]3CC[C@](O)(C(=O)CO)[C@@]3(C)C[C@H](O)[C@@]12F` [FLUDROCORTISONE]: the concentration at half-maximal activity (AC50) at Bile salt export pump is greater than 300 µM; in test [1], greater than 10 µM; in test [2] it was greater than 10 µM; in test [3] it was greater than 10 µM; in [4] it was greater than 30 µM; in test [5], greater than 10 µM. The AC50 on Cannabinoid receptor 1 was greater than 10 µM; in test [6], greater than 10 µM; at Histamine H1 receptor, greater than 10 µM; in test [7] it was greater than 10 µM; on Melanocortin receptor 4, greater than 30 µM; on Motilin receptor, greater than 10 µM. For the same molecule, the AC50 in test [8] was greater than 30 µM; in test [9], greater than 10 µM; in [10], greater than 30 µM; at Mu-type opioid receptor, greater than 30 µM; at Histamine H3 receptor, greater than 10 µM.

For `OCCOCCN1CCN(C(c2ccccc2)c2ccc(Cl)cc2)CC1` (stereo not drawn) [HYDROXYZINE], the AC50 at Bile salt export pump was 270 µM; in [1], greater than 10 µM; in test [2], greater than 10 µM; in test [3], greater than 10 µM; in test [4] it was greater than 30 µM; in test [5] it was greater than 10 µM. The AC50 on Cannabinoid receptor 1 was greater than 10 µM; in test [6], greater than 10 µM; on Histamine H1 receptor, 0.039 µM; in [7], greater than 10 µM; on Melanocortin receptor 4, greater than 30 µM; on Motilin receptor, greater than 10 µM. For the same molecule, the AC50 is greater than 30 µM in test [8]; 8.65 µM in test [9]; greater than 10 µM in [10]; greater than 30 µM on Mu-type opioid receptor; greater than 10 µM at Histamine H3 receptor.

`CC(=O)SCC(Cc1ccccc1)C(=O)NCC(=O)OCc1ccccc1` (stereo not drawn) [RACECADOTRIL]: the AC50 was 21 µM on Bile salt export pump; greater than 30 µM in test [1]; greater than 30 µM in [2]; greater than 30 µM in [3]; greater than 30 µM in test [4]; greater than 30 µM in [5]. Further, the AC50 at Cannabinoid receptor 1 is greater than 10 µM; in test [6], greater than 30 µM; at Histamine H1 receptor, greater than 30 µM; in test [7], greater than 30 µM; on Melanocortin receptor 4, greater than 30 µM; at Motilin receptor, greater than 30 µM. Further, the AC50 in [8] is greater than 30 µM; in test [9], 8.6 µM; in test [10], greater than 30 µM; at Mu-type opioid receptor, greater than 30 µM; at Histamine H3 receptor, greater than 30 µM.

As to `CCOc1ccccc1OCCN[C@H](C)Cc1ccc(OC)c(S(N)(=O)=O)c1` [TAMSULOSIN], the AC50 on Bile salt export pump was greater than 300 µM; in [1] it was greater than 30 µM; in [2] it was 4.77 µM; in [3] it was 2.5 µM; in test [4], greater than 30 µM; in test [5], greater than 10 µM. For the same molecule, the concentration at half-maximal activity (AC50) on Cannabinoid receptor 1 is greater than 10 µM; in [6], greater than 10 µM; at Histamine H1 receptor, greater than 10 µM; in test [7], greater than 10 µM; on Melanocortin receptor 4, greater than 30 µM; at Motilin receptor it was greater than 10 µM. Besides, the AC50 in test [8] was greater than 30 µM; in test [9], greater than 30 µM; in test [10], greater than 30 µM; at Mu-type opioid receptor, 5.3 µM; at Histamine H3 receptor, greater than 10 µM.

For the origin of these results see ChEMBL document CHEMBL5291721, “A preclinical secondary pharmacology resource illuminates target-adverse drug reaction associations of marketed drugs” (Nat Commun, 2023).
